Read-outs that look alike come from different tables or passages of the source.
Target: GLP-1 Receptor (Homo sapiens, UniProt P43220)
Assay: GLP-1R agonist cAMP stimulation assay (HEK293/GLP1R/CRE-Luc cells, HTRF cAMP)
Format: cell-based
Experimental: Activation of GLP-1 receptor is known to stimulate cyclic AMP (cAMP) production in cells which indicates primary coupling to the Gαs subunit of the G protein heterotrimeric complex.
To optimize functional activity directed toward Gαs coupling, a HEK293/CRE-Luc cell line developed by HDB stably expressing the GLP-1 Receptor was used. […] 1×10^5 cells/mL HEK293/GLP1R/CRE-LUC(HD Biosciences) cell suspensions prepared with assay buffer[DPBS containing 0.5 mM IBMX (Sigma, Cat #I5879) and 0.1% BSA (GENVIEW, Cat #FA016-100g)], 10 uL cell suspensions were added to each well of previous generated assay plate which already contains 50 nl compound at 200×concentration using ThermoFisher Multidrop Combi (1000 cells/well). Seal the plate and incubate at 37° C. with 5% CO2 for 30 min.
After incubation the cAMP assay signal was generated using cAMP dynamic 2 Kit (Cisbio). 5 μL cAMP-d2 working solution was added to each well, followed with 5 μL Anti-cAMP antibody-cryptate working solution added to each well using ThermoFisher Multidrop Combi. Incubate at room temperature for 1 hour protected from light.

[1] = HEK293/CRE-Luc cells stably expressing GLP-1 Receptor, 30 min, 37° C.

GLP-1 Receptor, sequence (P43220 24-463): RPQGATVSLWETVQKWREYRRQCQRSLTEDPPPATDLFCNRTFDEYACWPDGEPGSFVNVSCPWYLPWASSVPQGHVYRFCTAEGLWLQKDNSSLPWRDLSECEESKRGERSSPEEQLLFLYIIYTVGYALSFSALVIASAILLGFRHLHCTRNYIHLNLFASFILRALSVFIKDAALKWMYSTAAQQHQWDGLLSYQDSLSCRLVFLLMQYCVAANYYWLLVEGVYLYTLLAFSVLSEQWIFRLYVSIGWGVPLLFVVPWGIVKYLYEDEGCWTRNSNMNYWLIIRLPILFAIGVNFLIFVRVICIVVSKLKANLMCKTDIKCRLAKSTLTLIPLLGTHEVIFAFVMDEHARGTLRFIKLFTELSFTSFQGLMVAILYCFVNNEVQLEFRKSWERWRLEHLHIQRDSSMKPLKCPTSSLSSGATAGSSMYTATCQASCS

GLP1R cAMP Stimulation DR: pEC50 [1] | Compound | also measured
– | Cc1ccc(OC2CCN(Cc3nc4ccc(C(=O)O)nc4n3CC3CCO3)CC2)nc1Cc1ccc(Cl)cc1F (stereo in doubt) [Compound 169a, 2-{[4-({6-[(4-chloro-2-fluorophenyl)methyl]-5-methylpyridin-2-yl}oxy)piperidin-1-yl]methyl}-3-{[(2S)-oxetan-2-yl]methyl}-3H-imidazo[4,5-b]pyridine-5-carboxylic acid] | EC50 (HEK293/CRE-Luc cells stably expressing GLP-1 Receptor, 30 min, 37° C., read-out: GLP1R cAMP Stimulation DR: EC50): 80 nM
– | O=C(O)c1ccc2nc(CC3CCN(C(=O)c4cccc(Cc5ccc(Cl)cc5F)n4)CC3)n(C[C@@H]3CCO3)c2n1 [Compound 106a, (S)-2-((1-(6-(4-Chloro-2-fluorobenzyl)picolinoyl)piperidin-4-yl)methyl)-3-(oxetan-2-ylmethyl)-3H-imidazo[4,5-b]pyridine-5-carboxylic acid] | GLP1R cAMP Stimulation DR: pEC50 (30 min, 37° C.): 6.33
9.5 | O=C(O)c1ccc2nc(CN3CCC(Oc4nc(Cc5ccc(Cl)cc5F)ccc4F)CC3)n(C[C@@H]3CCO3)c2n1 [Compound 111a, 2-{[4-({6-[(4-chloro-2-fluorophenyl)methyl]-3-fluoropyridin-2-yl}oxy)piperidin-1-yl]methyl}-3-{[(2S)-oxetan-2-yl]methyl}-3H-imidazo[4,5-b]pyridine-5-carboxylic acid] | –
10.4 | O=C(O)c1ccc2nc(CN3CCC(Oc4ccnc(Cc5ccc(Cl)cc5F)n4)CC3)n(C[C@@H]3CCO3)c2n1 [Compound 113a, 2-{[4-({2-[(4-chloro-2-fluorophenyl)methyl]pyrimidin-4-yl}oxy)piperidin-1-yl]methyl}-3-{[(2S)-oxetan-2-yl]methyl}-3H-imidazo[4,5-b]pyridine-5-carboxylic acid] | –
8.8 | O=C(O)c1ccc2nc(CN3CCC(Oc4cc(Cc5ccc(Cl)cc5F)ccc4F)CC3)n(C[C@@H]3CCO3)c2n1 [Compound 114a, 2-[(4-{5-[(4-chloro-2-fluorophenyl)methyl]-2-fluorophenoxy}piperidin-1-yl)methyl]-3-{[(2S)-oxetan-2-yl]methyl}-3H-imidazo[4,5-b]pyridine-5-carboxylic acid] | –
8.6 | O=C(O)c1ccc2nc(CN3CCC(Oc4ccn(Cc5ccc(Cl)cc5F)n4)CC3)n(C[C@@H]3CCO3)c2c1 [Compound 116a, 2-{[4-({1-[(4-chloro-2-fluorophenyl)methyl]-1H-pyrazol-3-yl}oxy)piperidin-1-yl]methyl}-1-{[(2S)-oxetan-2-yl]methyl}-1H-1,3-benzodiazole-6-carboxylic acid] | –
8.2 | O=C(O)c1ccc2nc(CN3CCC(Cc4cccc(Oc5ccc(Cl)cc5F)n4)CC3)n(C[C@@H]3CCO3)c2n1 [Compound 121a, 2-[(4-{[6-(4-chloro-2-fluorophenoxy)pyridin-2-yl]methyl}piperidin-1-yl)methyl]-3-{[(2S)-oxetan-2-yl]methyl}-3H-imidazo[4,5-b]pyridine-5-carboxylic acid] | –
10.4 | O=C(O)c1ccc2nc(CN3CCC(Oc4cccc(Cc5ccc(Cl)cc5)n4)CC3)n(C[C@@H]3CCO3)c2n1 [Compound 124a, (S)-2-((4-((6-(4-chlorobenzyl)pyridin-2-yl)oxy)piperidin-1-yl)methyl)-3-(oxetan-2-ylmethyl)-3H-imidazo[4,5-b]pyridine-5-carboxylic acid] | –
8.9 | O=C(O)c1ccc2nc(CN3CCC(Oc4cccc(Cc5cccc(Cl)c5)n4)CC3)n(C[C@@H]3CCO3)c2n1 [Compound 125a, (S)-2-((4-((6-(3-chlorobenzyl)pyridin-2-yl)oxy)piperidin-1-yl)methyl)-3-(oxetan-2-ylmethyl)-3H-imidazo[4,5-b]pyridine-5-carboxylic acid] | –
– | CC(c1cccc(OC2CCN(Cc3nc4ccc(C(=O)O)nc4n3C[C@@H]3CCO3)CC2)n1)c1ccc(Cl)cc1F (stereo partly drawn) [Compound 128a, 2-{[4-({6-[1-(4-chloro-2-fluorophenyl)ethyl]pyridin-2-yl}oxy)piperidin-1-yl]methyl}-3-{[(2S)-oxetan-2-yl]methyl}-3H-imidazo[4,5-b]pyridine-5-carboxylic acid] | GLP1R cAMP Stimulation DR: pEC50: 8.9
7.3 | O=C(O)c1ccc2nc(CN3CCC(Oc4cccc(Cc5ccc(Cl)cc5F)n4)C3)n(C[C@@H]3CCO3)c2n1 (stereo partly drawn) [Compound 130a, 2-{[3-({6-[(4-chloro-2-fluorophenyl)methyl]pyridin-2-yl}oxy)pyrrolidin-1-yl]methyl}-3-{[(2S)-oxetan-2-yl]methyl}-3H-imidazo[4,5-b]pyridine-5-carboxylic acid] | –
8.6 | Cc1cn(Cc2ccc(Cl)cc2F)nc1OC1CCN(Cc2nc3ccc(C(=O)O)nc3n2C[C@@H]2CCO2)CC1 [Compound 133a, 2-{[4-({1-[(4-chloro-2-fluorophenyl)methyl]-4-methyl-1H-pyrazol-3-yl}oxy)piperidin-1-yl]methyl}-3-{[(2S)-oxetan-2-yl]methyl}-3H-imidazo[4,5-b]pyridine-5-carboxylic acid] | –
– | CC(=O)Nc1ccc2nc(CN3CCC(Oc4cccc(Cc5ccc(Cl)cc5F)n4)CC3)n(C[C@@H]3CCO3)c2c1 [Compound 134a, N-(2-{[4-({6-[(4-chloro-2-fluorophenyl)methyl]pyridin-2-yl}oxy)piperidin-1-yl]methyl}-1-{[(2S)-oxetan-2-yl]methyl}-1H-1,3-benzodiazol-6-yl)acetamide] | GLP1R cAMP Stimulation DR: pEC50 (30 min, 37° C.): 7.2
8.7 | N#Cc1ccc(Cc2cccc(OC3CCN(Cc4nc5ccc(C(=O)O)cc5n4C[C@@H]4CCO4)CC3)n2)c(F)c1 [Compound 135a, 2-{[4-({6-[(4-cyano-2-fluorophenyl)methyl]pyridin-2-yl}oxy)piperidin-1-yl]methyl}-1-{[(2S)-oxetan-2-yl]methyl}-1H-1,3-benzodiazole-6-carboxylic acid] | –
9.4 | N#Cc1ccc(Cc2cccc(OC3CCN(Cc4nc5ccc(C(=O)O)nc5n4C[C@@H]4CCO4)CC3)n2)c(F)c1 [Compound 136a, 2-{[4-({6-[(4-cyano-2-fluorophenyl)methyl]pyridin-2-yl}oxy)piperidin-1-yl]methyl}-3-{[(2S)-oxetan-2-yl]methyl}-3H-imidazo[4,5-b]pyridine-5-carboxylic acid] | –
7.3 | O=C(O)c1ccc2nc(CN3CCC(Oc4nc(Cc5ccc(Cl)cc5F)ccc4Cl)CC3)n(C[C@@H]3CCO3)c2n1 [Compound 137a, 2-{[4-({3-chloro-6-[(4-chloro-2-fluorophenyl)methyl]pyridin-2-yl}oxy)piperidin-1-yl]methyl}-3-{[(2S)-oxetan-2-yl]methyl}-3H-imidazo[4,5-b]pyridine-5-carboxylic acid] | –
8.9 | O=C(O)c1ccc2nc(CN3CCC(n4ccc5ccc(Cc6ccc(Cl)cc6F)nc54)CC3)n(C[C@@H]3CCO3)c2n1 [Compound 140a, 2-[(4-{6-[(4-chloro-2-fluorophenyl)methyl]-1H-pyrrolo[2,3-b]pyridin-1-yl}piperidin-1-yl)methyl]-3-{[(2S)-oxetan-2-yl]methyl}-3H-imidazo[4,5-b]pyridine-5-carboxylic acid] | –
8.8 | O=C(O)c1ccc2nc(CN3CCC(c4cccc5cn(Cc6ccc(Cl)cc6F)nc45)CC3)n(C[C@@H]3CCO3)c2n1 [Compound 142a, (S)-2-((4-(2-(4-chloro-2-fluorobenzyl)-2H-indazol-7-yl)piperidin-1-yl)methyl)-3-(oxetan-2-ylmethyl)-3H-imidazo[4,5-b]pyridine-5-carboxylic acid] | –
– | O=C(O)c1ccc2nc(CN3CCC(c4cccc5nc(Cc6ccc(Cl)cc6F)oc45)CC3)n(C[C@@H]3CCO3)c2n1 [Compound 143a, (S)-2-((4-(2-(4-chloro-2-fluorobenzyl)benzo[d]oxazol-7-yl)piperidin-1-yl)methyl)-3-(oxetan-2-ylmethyl)-3H-imidazo[4,5-b]pyridine-5-carboxylic acid] | GLP1R cAMP Stimulation DR: pEC50 (30 min, 37° C.): 9.3
8.3 | O=C(O)c1ccc2nc(CN3CCC(Oc4ccc(=O)n(Cc5ccc(Cl)cc5F)n4)CC3)n(C[C@@H]3CCO3)c2n1 [Compound 144a, 2-{[4-({1-[(4-chloro-2-fluorophenyl)methyl]-6-oxo-1,6-dihydropyridazin-3-yl}oxy)piperidin-1-yl]methyl}-3-{[(2S)-oxetan-2-yl]methyl}-3H-imidazo[4,5-b]pyridine-5-carboxylic acid] | –
8.5 | O=C(O)c1ccc2nc(CN3CCC(Oc4cccc(Cc5ccc(C(F)(F)F)cc5)n4)CC3)n(C[C@@H]3CCO3)c2n1 [Compound 145a, 3-{[(2S)-oxetan-2-yl]methyl}-2-({4-[(6-{[4-(trifluoromethyl)phenyl]methyl}pyridin-2-yl)oxy]piperidin-1-yl}methyl)-3H-imidazo[4,5-b]pyridine-5-carboxylic acid] | –
9.2 | O=C(O)c1ccc2nc(CN3CCC(Oc4cccc(Cc5ccc(C6CC6)cc5)n4)CC3)n(C[C@@H]3CCO3)c2n1 [Compound 146a, 2-{[4-({6-[(4-cyclopropylphenyl)methyl]pyridin-2-yl}oxy)piperidin-1-yl]methyl}-3-{[(2S)-oxetan-2-yl]methyl}-3H-imidazo[4,5-b]pyridine-5-carboxylic acid] | –
